Measured values published in patent EP0594223B1, “Combination of therapeutic nucleosides and further therapeutic agents” (THE WELLCOME FOUNDATION LIMITED, priority 1985, dated 1987).
Like-named read-outs stand apart in the source and are kept apart here.

Columns and labels:
HIV [1] = assay: AZT/acyclovir combination, in vitro efficacy (protection) vs. HIV; type: cell-based
Experimental: Using a method analogous to that described in Example 79 of EP21758A, combinations of AZT and acyclovir (ACV) were tested for in vitro efficacy vs. HIV.

E. coli CN314 = assay: MIC determination of each drug alone; type: cell-based; conditions: Escherichia coli
Experimental: Microtiter dilutions were prepared using Wellcotest broth. Prior to synergy testing, MIC determinations were made for each compound individually against the test organism (E. coli CN314).

HIV [2] = assay: Virus yield of HIV-infected PBMC cultures; type: cell-based; conditions: Experiment 3, Day 13; AZT .04 µM alone
HIV [3] = assay: Reverse transcriptase activity in supernatant of HIV-infected PBMC, with multiple drug effect analysis; type: cell-based; conditions: for mean reverse transcriptase values: Experiment 2, Day 10
[4] = test system: Friend Lenkemia Virus (FLV); assay: Anti-Friend Leukemia Virus plaque inhibition in FG-10 cells; type: cell-based
Experimental: FG-10 cells were seeded on a plate one day before they were infected with FLV. One hour after infecting, known concentrations of the test compounds or combinations were added. The plates were incubated for 3 days, the media replaced with fresh McCoy's 5A media and incubated another 3 days. […]

HIV [5] = assay: HIV p24 antigen by radioimmunoassay in HIV-infected PBMC cultures; type: cell-based; conditions: Experiment 4, Day 14
[6] = test system: vaccinia, HSVI and varicella zoster virus (VZV); conditions: De Clerq et al, Biochem.Pharm. (1980) 29, 1849-1851; including DNA viruses; cited from earlier work
[7] = test drugs alone, E. coli CN314, read-out: MIC

Nc1nc2c(ncn2COCCO)c(=O)[nH]1 [ACV, 9-(2-hydroxyethoxymethyl) guanine, reference compound]
protection (HIV [1]; ACV alone, 16 µg/ml (the highest tested)): less than 30% | potentiates the antiviral activity of AZT (HIV [1]; ACV combined with AZT vs. HIV): about 3 fold

Cc1cn([C@H]2C[C@H](N=[N+]=[N-])[C@@H](CO)O2)c(=O)[nH]c1=O [AZT]
MIC (E. coli CN314; [7]): 1 µg/mL | virus yield (HIV [2]): 10^3 TCID50 /ml | mean reverse transcriptase values (HIV [3]; AZT 0.01 µM alone): 159 cpm/10^6 cells x 10^3 | mean reverse transcriptase values (HIV [3]; AZT 0.02 µM alone): 110 cpm/10^6 cells x 10^3 | mean reverse transcriptase values (HIV [3]; AZT 0.04 µM alone): 71 cpm/10^6 cells x 10^3 | mean reverse transcriptase values (HIV [3]; AZT 0.08 µM alone): 31 cpm/10^6 cells x 10^3 | mean reverse transcriptase values (HIV [3]; AZT 0.16 µM alone): 7 cpm/10^6 cells x 10^3 | mean RT values (HIV [3]; Experiment 3, Day 13, AZT 0.02 µM alone): 51 cpm/10^6 cells x 10^3 | mean RT values (HIV [3]; Experiment 3, Day 13, AZT 0.04 µM alone): 10 cpm/10^6 cells x 10^3 | mean RT values (HIV [3]; Experiment 3, Day 13, AZT 0.08 µM alone): 2 cpm/10^6 cells x 10^3 | mean RT values (HIV [3]; Experiment 3, Day 13, AZT 0.16 µM alone): 5 cpm/10^6 cells x 10^3 | mean RT values (HIV [3]; Experiment 4, Day 11, AZT 0.02 µM alone): 8 cpm/10^6 cells x 10^3 | mean RT values (HIV [3]; Experiment 4, Day 11, AZT 0.04 µM alone): 4 cpm/10^6 cells x 10^3 | mean RT values (HIV [3]; Experiment 4, Day 11, AZT 0.08 µM alone): 1 cpm/10^6 cells x 10^3 | inhibition of viral replication (HIV [3]; experiment 1, all concentrations of AZT (3.2 µM and 5 twofold dilutions)): fully inhibitory | protection (HIV [1]; AZT alone at 8µM): 100% | AZT (HIV [1]; Table 3: AZT concentration with ACV 0 µg/ml, effect level not stated (presumably full protection)): 8 µM | EC50 ([4]; read-out: Azidothymidine ED50): 5 nM | HIV p24 (HIV [5]; AZT 0.02 µM alone): 100-200 ng protein/ml | HIV p24 (HIV [5]; AZT 0.04 µM alone): 25-30 ng protein/ml | HIV p24 (HIV [5]; AZT 0.08 µM alone): 11.2 ng protein/ml | activity against viruses [6]: no appreciable activity

O=C(N[C@H](CO)[C@H](O)c1ccc([N+](=O)[O-])cc1)C(Cl)Cl [Chloramphenicol]
MIC (E. coli CN314; [7]): 3.1 µg/mL

CCC[C@@H]1C[C@@H](C(=O)N[C@@H]([C@H]2O[C@H](SC)[C@H](O)[C@@H](O)[C@H]2O)[C@H](C)Cl)N(C)C1 [Clindamycin]
MIC (E. coli CN314; [7]): 100 µg/mL

CC[C@H]1OC(=O)[C@H](C)[C@@H](O[C@H]2C[C@@](C)(OC)[C@@H](O)[C@H](C)O2)[C@H](C)[C@@H](O[C@@H]2O[C@H](C)C[C@H](N(C)C)[C@H]2O)[C@](C)(O)C[C@@H](C)C(=O)[C@H](C)[C@@H](O)[C@]1(C)O [Erthromycin]
MIC (E. coli CN314; [7]): 25 µg/mL

CC(=O)O[C@H]1C[C@@]2(C)[C@@H](C[C@@H](O)[C@H]3[C@@]4(C)CC[C@@H](O)[C@@H](C)[C@@H]4CC[C@@]32C)/C1=C(\CCC=C(C)C)C(=O)O [Fusidic acid]
MIC (E. coli CN314; [7]): 1000 µg/mL

CO[C@H]1/C=C/O[C@@]2(C)Oc3c(C)c(O)c4c(O)c(c(/C=N/N5CCN(C)CC5)c(O)c4c3C2=O)NC(=O)/C(C)=C\C=C\[C@H](C)[C@H](O)[C@@H](C)[C@@H](O)[C@@H](C)[C@H](OC(C)=O)[C@@H]1C [Rifampicin]
MIC (E. coli CN314; [7]): 6.2 µg/mL

Cc1cc(C)nc(NS(=O)(=O)c2ccc(N)cc2)n1 [Sulphadimidine]
MIC (E. coli CN314; [7]): 32 µg/mL

NC[C@H]1O[C@H](O[C@H]2[C@H](O)[C@@H](O[C@H]3O[C@H](CO)[C@@H](O)[C@H](N)[C@H]3O)[C@H](N)C[C@@H]2N)[C@H](N)C[C@@H]1O [Tobramycin]
MIC (E. coli CN314; [7]): 0.4 µg/mL

COc1cc(Cc2cnc(N)nc2N)cc(OC)c1OC [Trimethoprim, 2,4-diamino-5-(3',4',5'-trimethoxybenzyl) pyrimidine]
MIC (E. coli CN314; CN314): 0.125 µg/mL

COc1cc(C(=O)OCCCN2CCCN(CCCOC(=O)c3cc(OC)c(OC)c(OC)c3)CC2)cc(OC)c1OC [dilazep]
antiviral effect ([4]; dilazep alone, 5 µM): Neither dipyridamole (10 µM) nor dilazep (5 µM) alone had any observed antiviral effect

OCCN(CCO)c1nc(N2CCCCC2)c2nc(N(CCO)CCO)nc(N3CCCCC3)c2n1 [dipyridamole]
antiviral effect ([4]; dipyridamole alone, 10 µM): Neither dipyridamole (10 µM) nor dilazep (5 µM) alone had any observed antiviral effect
